Assay results taken from patent US10335378B2, “Inhibition of central nervous system effects from smoking and sensory effects from smoking” (Altria Client Services LLC, priority 2013, dated 2019).
Entries after “also recorded” stand apart in the source; their conditions may differ.

Tests used:
nAChR receptor [1] = experiment: Epibatidine-induced CGRP release in tracheal tissue; type: cell-based, mouse
acetylcholine receptors = settings: adrenal gland cells; cited from earlier work
TRPA1 channel [2] = molecular target: T1, TRPA1 channel (Mus musculus, UniProt Q8BLA8); experiment: Formalin-stimulated CGRP release in skin and tracheal tissue samples; type: cell-based; design: formalin-stimulated GCRP release in both skin and tracheal tissue samples; from tissue; host or cells: skin and tracheal tissue samples; settings: FIG. 8
T1 sequence (Q8BLA8 whole entry): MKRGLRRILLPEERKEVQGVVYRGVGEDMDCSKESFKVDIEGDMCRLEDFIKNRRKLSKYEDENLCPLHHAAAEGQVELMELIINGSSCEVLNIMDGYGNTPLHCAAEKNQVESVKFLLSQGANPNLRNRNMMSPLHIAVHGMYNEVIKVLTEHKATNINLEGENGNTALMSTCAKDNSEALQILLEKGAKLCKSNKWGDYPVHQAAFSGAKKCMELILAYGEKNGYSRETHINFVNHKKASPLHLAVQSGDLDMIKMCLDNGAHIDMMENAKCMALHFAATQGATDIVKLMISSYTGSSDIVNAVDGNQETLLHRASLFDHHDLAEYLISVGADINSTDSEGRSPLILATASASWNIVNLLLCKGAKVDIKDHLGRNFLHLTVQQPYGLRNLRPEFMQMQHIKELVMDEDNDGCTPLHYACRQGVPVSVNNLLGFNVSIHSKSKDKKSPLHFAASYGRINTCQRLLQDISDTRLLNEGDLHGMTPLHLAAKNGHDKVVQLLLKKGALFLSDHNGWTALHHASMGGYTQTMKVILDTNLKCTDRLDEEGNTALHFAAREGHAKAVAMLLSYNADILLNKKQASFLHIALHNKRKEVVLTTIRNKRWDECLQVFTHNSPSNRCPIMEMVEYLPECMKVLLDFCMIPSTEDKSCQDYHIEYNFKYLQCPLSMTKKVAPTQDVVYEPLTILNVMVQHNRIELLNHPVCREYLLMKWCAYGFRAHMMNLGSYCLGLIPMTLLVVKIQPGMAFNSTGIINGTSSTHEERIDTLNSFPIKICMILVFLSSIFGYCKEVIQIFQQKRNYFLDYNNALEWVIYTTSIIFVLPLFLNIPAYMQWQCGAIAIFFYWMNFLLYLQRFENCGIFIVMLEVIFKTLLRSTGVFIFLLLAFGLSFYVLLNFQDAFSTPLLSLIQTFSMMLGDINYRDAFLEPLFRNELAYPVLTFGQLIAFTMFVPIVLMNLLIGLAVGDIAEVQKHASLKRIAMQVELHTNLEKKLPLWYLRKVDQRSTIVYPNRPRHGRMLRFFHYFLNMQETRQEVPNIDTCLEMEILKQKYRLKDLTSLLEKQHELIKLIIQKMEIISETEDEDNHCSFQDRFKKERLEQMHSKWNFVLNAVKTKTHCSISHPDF
Description: (§1) Similar dosing experiments were performed using formalin, a TRPA1 channel […]. […] (FIG. 8). […] Thus, in some embodiments, active ingredients may be used that inhibit both the nicotinic acetylcholine receptors and the TRPA1 channel. […] (FIG. 9). […] (FIG. 9).

TRPV1 channel = experiment: Heat (45° C.)-induced CGRP release in tracheal samples; type: cell-based, mouse; settings: FIG. 6; for Heat-induced CGRP release with test substance: 45° C.
tracheal tissue samples = experiment: Total particulate matter (TPM)-stimulated CGRP release in tracheal tissue samples; type: cell-based; settings: FIG. 10
From the text: To assess the potential of camphor on GCRP release stimulated by cigarette smoking, tracheal tissue samples were exposed to total particulate matter (TPM) containing the same amount of nicotine as in the nicotine alone experiment. […] (FIG. 10). […] (FIG. 10). The results observed in the TPM experiments are similar to those seen in experiments in which nicotine is used alone. (FIG. 10).

TRPA1 channel [3] = molecular target: T1, TRPA1 channel; experiment: Acrolein-induced CGRP release in mouse trachea tissue; type: cell-based; design: CGRP release can be detected in vitro using whole trachea tissue; from tissue; host or cells: mouse trachea; settings: FIG. 7; for CGRP release versus acrolein alone: trachea samples exposed to acrolein plus test substance
Description: (§2) CGRP is a sensory biomarker of neurons that mediate information to the brain. CGRP release can be detected in vitro using whole trachea tissue by exposing the tissue to a stimulatory compound. A standard ELISA assay may then be used to measure the release of CGRP. The active ingredient was tested using a mouse trachea model.
(FIG. 7). […] (FIG. 7). […] (FIG. 7).

nerve fibers = settings: isolated mouse trachea model; cited from earlier work
[4] = system: mouse nodose/jugular Ggl neurons; experiment: Calcium imaging (340 and 380 nm) of nicotine-stimulated neurons; type: cell-based; settings: FIG. 3b
Description: (§3) (FIG. 3a). […] Calcium-imaging experiments were performed on mouse nodose/jugular Ggl neurons with images captures at 340 and 380 nm over time. (FIG. 3b). […] (FIG. 3b). […] (FIG. 3c). […] (FIG. 3c). […] (FIG. 3d).

[5] = system: nicotinic acetylcholine receptors; experiment: Nicotine-induced CGRP release in buccal mucosa tissue samples; type: cell-based, mouse
From the text: Active ingredients appropriate for use in embodiments described herein may also include isoborneol.

TRPA1 channel [6] = molecular target: T1, TRPA1 channel; experiment: TRPA1 irritant-stimulated iCGRP release in tracheal tissue samples; type: cell-based; design: formalin-stimulated GCRP release in both skin and tracheal tissue samples; from tissue; host or cells: skin and tracheal tissue samples; settings: tracheal tissue samples with TRPA1 channel irritants; FIG. 9
Description: as §1

nAChR receptor [7] = experiment: Nicotine-induced CGRP release in mouse trachea tissue (ELISA); type: cell-based; settings: for CGRP release versus nicotine alone: trachea samples exposed to nicotine plus test substance, FIG. 1b; for Maximal nicotinic response (CGRP release, time course): trachea tissue pretreated with nicotine, then enantiomer, FIG. 2
Description: as §2
In order to determine whether a specific enantiomer of the active ingredient show greater efficacy, time course experiments were conducted in which trachea tissue samples were pretreated with nicotine and exposed to either the (−) or (+) enantiomer of camphor.
as §3

[8] = tracheal samples of TRPV1 knockout mice
[9] = tracheal samples of normal mice

SMILES: Clc1ccc(C2CC3CCC2N3)cn1 (stereo not shown) [epibatidine, reference compound]
- CGRP release induced by the stimulus alone (nAChR receptor [1]; tracheal tissue, FIG. 3c): increased release of CGRP

SMILES: CC12CCC(CC1=O)C2(C)C (stereo not shown) [camphor]
- Nor-epinephrine release (acetylcholine receptors): inhibit nor-epinephrine release from adrenal gland cells
- Effect of camphor at high formalin concentrations (TRPA1 channel [2]; both skin and tracheal tissue samples): could be overcome at high formalin concentrations
- Formalin-stimulated CGRP release with camphor (TRPA1 channel [2]; skin tissue samples): decrease in formalin-stimulated GCRP release
- Formalin-stimulated CGRP release with camphor (TRPA1 channel [2]; tracheal tissue samples): decrease in formalin-stimulated GCRP release
- Heat-induced CGRP release with test substance (TRPV1 channel; [8]): released comparable levels of CGRP relative to normal samples
- Heat-induced CGRP release with test substance (TRPV1 channel; [9]): released comparable levels of CGRP relative to normal samples
- TPM-stimulated CGRP release with camphor (tracheal tissue samples): largely blocked
- CGRP release versus acrolein alone (TRPA1 channel [3]; FIG. 1c): decrease in CGRP release; also recorded: marked reduction in CGRP release
- CGRP release in camphor treated samples as acrolein concentration was increased (TRPA1 channel [3]; versus acrolein only at the same concentration): significantly lower levels of CGRP
- Activation of nerve fibers induced by nicotine (nerve fibers): effectively inhibit activation of nerve fibers
- Epibatidine-induced CGRP release with camphor in absence of TRPA1 (nAChR receptor [1]; tracheal samples from TRPA1 knockout mice, FIG. 3d): effectively inhibited CGRP release; also recorded: marked reduction in CGRP release
- Epibatidine-induced CGRP release with inhibitor (nAChR receptor [1]; tracheal tissue, FIG. 3c): release of CGRP could be inhibited
- Nicotine-stimulated calcium influx in combination with test substance [4]: not when given in combination with camphor
- CGRP release after nicotine followed by test substance, versus nicotine alone ([5]; buccal mucosa time course, male mice showed stronger inhibition, FIGS. 5a and 5b): CGRP release was significantly lower
- CGRP release with nicotine and camphor ([5]; buccal mucosa, TRPA1/TRPV1 double knockouts, FIG. 4): did not show a significant change in CGRP release
- TRPA1 channel mediated release of iCGRP with camphor (TRPA1 channel [6]): reduce the TRPA1 channel mediated release of iCGRP
- Dose dependence of anti-nicotinic effect (CGRP release) (nAChR receptor [7]; mouse trachea, nicotine plus various concentrations of camphor, FIG. 3a): CGRP release was decreased as the concentration of camphor was increased
- CGRP release versus nicotine alone (nAChR receptor [7]): released less CGRP compared to samples exposed to nicotine alone

SMILES: NCCOB(c1ccccc1)c1ccccc1 [2-APB]
- Heat-induced CGRP release with test substance (TRPV1 channel; [9]): increase CGRP release

SMILES: CC12CCC(CC1=O)C2(C)C (single isomer, unassigned; (+)) [(+) enantiomer of camphor]
- Maximal nicotinic response (CGRP release, time course) (nAChR receptor [7]): effective at abolishing the maximal nicotinic response

SMILES: C=CC=O [acrolein, reference compound]
- CGRP release induced by the stimulus alone (TRPA1 channel [3]; trachea tissue, various concentrations, FIG. 1c): cause CGRP release at various concentrations; also recorded: released increased amounts of CGRP when exposed to higher concentrations

SMILES: CN1CCCC1c1cccnc1 (stereo not shown) [nicotine]
- Calcium influx, stimulus alone [4]: stimulated calcium influx in Ggl neurons
- CGRP release induced by nicotine alone ([5]; buccal mucosa, TRPA1/TRPV1 double knockout mice, FIG. 4): did not respond to nicotine exposure by releasing similar amounts of CGRP relative to normal mice
- CGRP release induced by nicotine alone ([5]; buccal mucosa, normal C57Bl/6 mice, FIG. 4, FIGS. 5a and 5b): released increased amounts of CGRP; also recorded: increased release of CGRP
- CGRP release induced by the stimulus alone (nAChR receptor [7]; mouse trachea, FIG. 1a): induce the release of calcitonin gene-related peptide (CGRP)

SMILES: CC1(C)[C@H]2CC[C@]1(C)C(=O)C2 (single isomer, unassigned) [(−) enantiomer of camphor]
- Maximal nicotinic response (CGRP release, time course) (nAChR receptor [7]): effective at abolishing the maximal nicotinic response

SMILES: CC(C)(C)c1ccc(NC(=O)N2CCN(c3ncccc3Cl)CC2)cc1 [BCTC, reference compound]
- CGRP release versus nicotine alone (nAChR receptor [7]): did not show any significant reduction in CGRP release

SMILES: CNC1(C)C2CCC(C2)C1(C)C (stereo not shown) [Mecamylanine, reference compound]
- Epibatidine-induced CGRP release with inhibitor (nAChR receptor [1]; tracheal tissue, FIG. 3c): release of CGRP could be inhibited

SMILES: CC(C)c1ccc(NC(=O)Cn2cnc3c2c(=O)n(C)c(=O)n3C)cc1 [HC030031, reference compound]
- CGRP release versus acrolein alone (TRPA1 channel [3]; FIG. 1c): CGRP release was also reduced
- CGRP release versus nicotine alone (nAChR receptor [7]): did not show any significant reduction in CGRP release

SMILES: CCO [ethanol]
- CGRP release in ethanol-treated TRPV1 knockout samples relative to ethanol-treated normal samples (TRPV1 channel; heat treated tracheal samples): 5 fold less
- Heat-induced CGRP release with test substance (TRPV1 channel; [8]): increase in CGRP release relative to untreated TRPV1 knockouts
- Heat-induced CGRP release with test substance (TRPV1 channel; [9]): increase CGRP release
